Results: article PMC8699473, “An Easily Expandable Multi-Drug LC-MS Assay for the Simultaneous Quantification of 57 Oral Antitumor Drugs in Human Plasma” (Cancers, 2021)

Test: Long-term stability in spiked pooled human plasma

Row | SMILES | Long-term stability, 1 month, -20°C Accuracy [%] (validation standard 2xLLOV) | Long-term stability, 1 month, -80°C Accuracy [%] (validation standard 2xLLOV) | Long-term stability, 2 month, -20°C Accuracy [%] (validation standard 2xLLOV) | Long-term stability, 2 month, -80°C Accuracy [%] (validation standard 2xLLOV) | Long-term stability, 3 month, -20°C Accuracy [%] (validation standard 2xLLOV) | Long-term stability, 3 month, -80°C Accuracy [%] (validation standard 2xLLOV) | Long-term stability, 6 weeks, 4°C, without daylight Accuracy [%] (validation standard 2xLLOV) | Long-term stability, 1 month, -20°C Accuracy [%] (validation standard LLOV) | Long-term stability, 1 month, -80°C Accuracy [%] (validation standard LLOV) | Long-term stability, 2 month, -20°C Accuracy [%] (validation standard LLOV) | Long-term stability, 2 month, -80°C Accuracy [%] (validation standard LLOV) | Long-term stability, 3 month, -20°C Accuracy [%] (validation standard LLOV) | Long-term stability, 3 month, -80°C Accuracy [%] (validation standard LLOV) | Long-term stability, 6 weeks, 4°C, without daylight Accuracy [%] (validation standard LLOV) | Long-term stability, 1 month, -20°C Accuracy [%] (validation standard MOV) | Long-term stability, 1 month, -80°C Accuracy [%] (validation standard MOV) | Long-term stability, 2 month, -20°C Accuracy [%] (validation standard MOV) | Long-term stability, 2 month, -80°C Accuracy [%] (validation standard MOV) | Long-term stability, 3 month, -20°C Accuracy [%] (validation standard MOV) | Long-term stability, 3 month, -80°C Accuracy [%] (validation standard MOV) | also measured
1 | O=C1CN2Cc3c(ccc(Cl)c3Cl)N=C2N1 [Anagrelide] | 99.8 | 105.6 | 121.4 | 118.5 | 110.2 | 114.9 | 74.6 | 103.9 | 121.5 | 128.7 | 141.5 | 101.8 | 118.8 | 33.5 | 95.0 | 97.0 | 101.3 | 98.7 | 95.7 | 95.1 | Long-term stability, 6 weeks, 4°C, without daylight Accuracy [%] (validation standard MOV): 103.7%; Long-term stability, 1 month, -20°C Accuracy [%] (validation standard ULOV): 95.4%; Long-term stability, 1 month, -80°C Accuracy [%] (validation standard ULOV): 90.8%; Long-term stability, 2 month, -20°C Accuracy [%] (validation standard ULOV): 94.5%; Long-term stability, 2 month, -80°C Accuracy [%] (validation standard ULOV): 99.2%; Long-term stability, 3 month, -20°C Accuracy [%] (validation standard ULOV): 94.9%; Long-term stability, 3 month, -80°C Accuracy [%] (validation standard ULOV): 94.7%; Long-term stability, 6 weeks, 4°C, without daylight Accuracy [%] (validation standard ULOV): 97.1%
2 | C#Cc1cccc(Nc2ncnc3cc(OCCOC)c(OCCOC)cc23)c1 [Erlotinib] | 102.3 | 98.1 | 106.4 | 105.9 | 106.0 | 105.8 | 95.9 | 113.5 | 108.0 | 113.2 | 114.8 | 111.5 | 114.1 | 107.0 | 97.4 | 97.0 | 102.2 | 101.3 | 102.2 | 102.8 | Long-term stability, 6 weeks, 4°C, without daylight Accuracy [%] (validation standard MOV): 111.0%; Long-term stability, 1 month, -20°C Accuracy [%] (validation standard ULOV): 99.6%; Long-term stability, 1 month, -80°C Accuracy [%] (validation standard ULOV): 97.8%; Long-term stability, 2 month, -80°C Accuracy [%] (validation standard ULOV): 104.4%; Long-term stability, 3 month, -20°C Accuracy [%] (validation standard ULOV): 101.8%; Long-term stability, 3 month, -80°C Accuracy [%] (validation standard ULOV): 104.4%; Long-term stability, 6 weeks, 4°C, without daylight Accuracy [%] (validation standard ULOV): 103.7%
3 | CCN(CC)CCNC(=O)c1c(C)[nH]c(/C=C2\C(=O)Nc3ccc(F)cc32)c1C [Sunitinib] | 121.2 | 108.5 | 108.9 | 108.9 | 123.9 | 131.1 | 85.9 | 132.8 | 122.7 | 114.3 | 112.8 | 130.7 | 135.5 | 96.2 | 118.5 | 107.0 | 106.3 | 102.8 | 123.6 | 120.9 | Long-term stability, 6 weeks, 4°C, without daylight Accuracy [%] (validation standard MOV): 109.9%; Long-term stability, 1 month, -20°C Accuracy [%] (validation standard ULOV): 119.5%; Long-term stability, 1 month, -80°C Accuracy [%] (validation standard ULOV): 109.0%; Long-term stability, 2 month, -20°C Accuracy [%] (validation standard ULOV): 109.7%; Long-term stability, 2 month, -80°C Accuracy [%] (validation standard ULOV): 108.8%; Long-term stability, 3 month, -20°C Accuracy [%] (validation standard ULOV): 122.5%; Long-term stability, 3 month, -80°C Accuracy [%] (validation standard ULOV): 118.4%; Long-term stability, 6 weeks, 4°C, without daylight Accuracy [%] (validation standard ULOV): 105.4%
4 | COc1cc(N2CCC(N3CCN(C)CC3)CC2)ccc1Nc1ncc(Cl)c(Nc2ccccc2P(C)(C)=O)n1 [Brigatinib] | 92.4 | 92.1 | 105.4 | 110.2 | 96.3 | 99.0 | 94.2 | 93.6 | 88.3 | 100.6 | 96.7 | 92.1 | 93.0 | 89.6 | 100.8 | 96.9 | 108.5 | 107.5 | 105.5 | 106.8 | Long-term stability, 6 weeks, 4°C, without daylight Accuracy [%] (validation standard MOV): 104.7%; Long-term stability, 1 month, -20°C Accuracy [%] (validation standard ULOV): 100.4%; Long-term stability, 1 month, -80°C Accuracy [%] (validation standard ULOV): 95.0%; Long-term stability, 2 month, -20°C Accuracy [%] (validation standard ULOV): 105.8%; Long-term stability, 2 month, -80°C Accuracy [%] (validation standard ULOV): 108.0%; Long-term stability, 3 month, -20°C Accuracy [%] (validation standard ULOV): 102.6%; Long-term stability, 3 month, -80°C Accuracy [%] (validation standard ULOV): 98.7%; Long-term stability, 6 weeks, 4°C, without daylight Accuracy [%] (validation standard ULOV): 98.6%
5 | Cc1ccc(Nc2nccc(N(C)c3ccc4c(C)n(C)nc4c3)n2)cc1S(N)(=O)=O [Pazopanib] | 99.1 | 95.8 | 100.4 | 103.8 | 106.9 | 104.8 | 96.5 | 102.3 | 97.4 | 106.7 | 108.3 | 103.9 | 103.6 | 99.0 | 96.3 | 95.8 | 98.8 | 98.1 | 103.3 | 103.3 | Long-term stability, 6 weeks, 4°C, without daylight Accuracy [%] (validation standard MOV): 109.7%; Long-term stability, 1 month, -20°C Accuracy [%] (validation standard ULOV): 97.3%; Long-term stability, 1 month, -80°C Accuracy [%] (validation standard ULOV): 93.0%; Long-term stability, 2 month, -20°C Accuracy [%] (validation standard ULOV): 98.8%; Long-term stability, 2 month, -80°C Accuracy [%] (validation standard ULOV): 98.3%; Long-term stability, 3 month, -20°C Accuracy [%] (validation standard ULOV): 98.1%; Long-term stability, 3 month, -80°C Accuracy [%] (validation standard ULOV): 100.0%; Long-term stability, 6 weeks, 4°C, without daylight Accuracy [%] (validation standard ULOV): 98.9%
6 | CC(=O)Nc1cccc(-n2c(=O)n(C3CC3)c(=O)c3c(Nc4ccc(I)cc4F)n(C)c(=O)c(C)c32)c1 [Trametinib] | 105.1 | 110.9 | 123.9 | 104.2 | 105.5 | 103.8 | 97.4 | 111.6 | 101.9 | 111.6 | 103.4 | 96.6 | 104.8 | 101.5 | 105.2 | 107.1 | 116.1 | 117.6 | 102.9 | 102.5 | Long-term stability, 6 weeks, 4°C, without daylight Accuracy [%] (validation standard MOV): 103.9%; Long-term stability, 1 month, -20°C Accuracy [%] (validation standard ULOV): 103.2%; Long-term stability, 1 month, -80°C Accuracy [%] (validation standard ULOV): 99.6%; Long-term stability, 2 month, -20°C Accuracy [%] (validation standard ULOV): 119.8%; Long-term stability, 2 month, -80°C Accuracy [%] (validation standard ULOV): 115.3%; Long-term stability, 3 month, -20°C Accuracy [%] (validation standard ULOV): 94.5%; Long-term stability, 3 month, -80°C Accuracy [%] (validation standard ULOV): 106.9%; Long-term stability, 6 weeks, 4°C, without daylight Accuracy [%] (validation standard ULOV): 94.7%
7 | CS(=O)(=O)CCNCc1ccc(-c2ccc3ncnc(Nc4ccc(OCc5cccc(F)c5)c(Cl)c4)c3c2)o1 [Lapatinib] | 91.4 | 92.2 | 84.4 | 102.3 | 72.0 | 96.3 | 34.8 | 85.5 | 91.6 | 80.7 | 98.5 | 55.4 | 95.3 | 28.2 | 95.3 | 97.6 | 93.7 | 103.0 | 78.1 | 101.0 | Long-term stability, 6 weeks, 4°C, without daylight Accuracy [%] (validation standard MOV): 101.1%; Long-term stability, 1 month, -20°C Accuracy [%] (validation standard ULOV): 96.6%; Long-term stability, 1 month, -80°C Accuracy [%] (validation standard ULOV): 94.5%; Long-term stability, 2 month, -20°C Accuracy [%] (validation standard ULOV): 101.5%; Long-term stability, 2 month, -80°C Accuracy [%] (validation standard ULOV): 100.9%; Long-term stability, 3 month, -20°C Accuracy [%] (validation standard ULOV): 95.4%; Long-term stability, 3 month, -80°C Accuracy [%] (validation standard ULOV): 96.7%; Long-term stability, 6 weeks, 4°C, without daylight Accuracy [%] (validation standard ULOV): 99.9%
8 | COC(=O)N[C@@H](C)CNc1nccc(-c2cn(C(C)C)nc2-c2cc(Cl)cc(NS(C)(=O)=O)c2F)n1 [Encorafenib] | 100.7 | 93.5 | 111.7 | 104.1 | 97.4 | 95.2 | 95.2 | 84.2 | 88.1 | 103.4 | 93.1 | 96.1 | 94.9 | 81.0 | 99.0 | 97.1 | 102.3 | 104.9 | 101.8 | 100.8 | Long-term stability, 6 weeks, 4°C, without daylight Accuracy [%] (validation standard MOV): 109.2%; Long-term stability, 1 month, -20°C Accuracy [%] (validation standard ULOV): 99.1%; Long-term stability, 1 month, -80°C Accuracy [%] (validation standard ULOV): 95.7%; Long-term stability, 2 month, -20°C Accuracy [%] (validation standard ULOV): 104.0%; Long-term stability, 2 month, -80°C Accuracy [%] (validation standard ULOV): 101.8%; Long-term stability, 3 month, -20°C Accuracy [%] (validation standard ULOV): 100.7%; Long-term stability, 3 month, -80°C Accuracy [%] (validation standard ULOV): 99.0%; Long-term stability, 6 weeks, 4°C, without daylight Accuracy [%] (validation standard ULOV): 101.7%
